From US6414142B1, “Process for preparing potassium clavulanate” (SmithKline Beecham Corporation, priority 1996, dated 2002)

How the values were obtained:
Format in all cases: physicochemical
[1] = Particle size distribution of potassium clavulanate crystalline forms; details: crystalline form comparison, Example 5
[2] = Flowability of potassium clavulanate crystalline forms; details: crystalline form comparison, Example 5
[3] = Stability / shelf-life compared with prior art crystalline forms; details: compared to rosette, needle and starburst forms; generally lower polymer level

Compound	Particle Size Distribution [1]	Flowabiiity [2]	stability and shelf-life [3]
O=C(O)[C@H]1/C(=C/CO)O[C@@H]2CC(=O)N21 [Needles/rods, potassium clavulanate]	34.1-67.3 microns	3.4	
O=C(O)[C@H]1/C(=C/CO)O[C@@H]2CC(=O)N21 [Rosettes, potassium clavulanate]	34.8- 66.4 microns	6.1	
O=C(O)[C@H]1/C(=C/CO)O[C@@H]2CC(=O)N21 [Starbursts/Broken Starbursts, potassium clavulanate]	33.5-70.5 microns		
O=C(O)[C@H]1/C(=C/CO)O[C@@H]2CC(=O)N21 [Rosette-like Starbursts, potassium clavulanate]	35.1- 97.9 microns	4.8	greater stability
